Assay: Inhibition of FTase

Row | Compound | IC50 [nM]
1 | CCCC[C@H]1CN(C(=O)c2cccc3ccccc23)CCN1Cc1cncn1Cc1ccc(C#N)cc1 | 21
2 | CCCC[C@H]1CN(c2ccc(Cl)cc2)C(=O)CN1Cc1cncn1Cc1ccc(C#N)cc1 | 0.44
3 | CC[C@@H](C)[C@@H](CN(CC(=O)N[C@@H](CCSC)C(=O)O)Cc1cccc2ccccc12)NC(=O)Cc1cncn1Cc1ccc(C#N)cc1 | 0.15
4 | N#Cc1ccc2cc1Oc1ccc3cccc(c3c1)N1CCN(CC1=O)Cc1cncn1C2 | 0.1
5 | C=C(C(=O)N1C[C@H]2[C@@]3(c4ccc(C)cc4)CC[C@H](c4ccccc43)[C@@]2(C(=O)O)C1)c1ccccc1OC | 8
6 | O=C(Cc1ccncc1)N1CCN([C@H]2c3ccc(Cl)cc3CCc3cccnc32)CC1 | 140
7 | CC[C@@H](C)[C@@H](CO[C@@H](Cc1ccccc1)C(=O)N[C@@H](CCS(C)(=O)=O)C(=O)O)NC[C@@H](N)CS | 1.8
8 | COc1ccccc1CC(=O)N1C[C@@H]2[C@@H]3CC[C@@](c4ccccc4)(c4ccccc43)[C@@H]2C1 | 40000
9 | CC[C@@]1(c2cccc(Oc3cc([C@@](C)(N)c4cncn4C)ccc3C#N)c2)CCCCN(C)C1=O | 0.06
10 | CN1CCC(C2c3ccccc3CCc3cccnc32)CC1 (stereo not given) | 720000
11 | CN1CCN(C(=O)c2cn(Cc3cncn3Cc3ccc4c(c3)OCO4)cc2-c2cccc3ccccc23)CC1 | 2.4
12 | CC[C@@H](C)[C@@H](CN(CC(=O)N[C@@H](CCSC)C(=O)O)Cc1cccc2ccccc12)NC(=O)Cc1cn(Cc2ccncc2)cn1 | 74
13 | CC(=O)OCC(=O)[C@@]1(O)C(C)CC2C3CCC4=CC(=O)C=C[C@]4(C)C3=CC[C@@]21C (stereo not given in full) | 40000
14 | N#Cc1ccc(Cn2ccnc2)cc1Oc1cccc(C2CCCCNC2=O)c1 (stereo not given) | 41
15 | Cc1cccc2c1[C@@H](O)[C@@H](Cn1ccnc1)S2 | 270000
16 | CC(C)CCCC(C)C1CCC2C3C(CC[C@]12C)[C@@](C)(C[C@@H](CC(=O)O)C(=O)O)C(=O)C[C@@H]3C (stereo not given in full) | 40

More lines, in order of falling IC50, values ahead:

Row | IC50 [nM] | Compound
17 | 5800 | O=C1CN(Cc2cncn2Cc2cccc(Oc3ccccc3)c2)CCN1c1ccc(C(F)(F)F)cc1
18 | 700 | Fc1ccc2c(c1)[C@@H](OCc1ccc(Cl)cc1Cl)[C@@H](Cn1ccnc1)S2
19 | 500 | COC(=O)[C@H](CCSC)NC(=O)c1cccc2cc(NC[C@H](N)CS)ccc12
20 | 240 | CC[C@@H](C)[C@@H](CO[C@@H](Cc1ccccc1)C(=O)N[C@@H](CCS(C)(=O)=O)C(=O)OC)NC[C@@H](N)CS
21 | 18 | CSCC[C@H](NC(=O)c1cccc2cc(NC[C@H](N)CS)ccc12)C(=O)O
22 | 5 | N#Cc1ccc(Cn2cncc2CN2CCN(c3ccccc3)C(=O)C2)cc1
23 | 5 | Cn1cncc1C(OCc1ccc(C#N)cc1NC(=O)c1ccccc1)c1ccc(C#N)cc1 (stereo not given)
24 | 1.5 | CC[C@]1(c2cccc(Oc3cc([C@@](C)(N)c4cncn4C)ccc3C#N)c2)CCCCN(C)C1=O
25 | 1 | N#Cc1ccc(Cn2cncc2CN2CCN(c3cccc(Cl)c3)C(=O)C2)cc1Oc1ccc2ccccc2c1

Source: ChEMBL document CHEMBL1140594, “Farnesyltransferase pharmacophore model derived from diverse classes of inhibitors” (Bioorg Med Chem Lett, 2007)
